Results published in the supplement of paper PMC10307832.

Key:
Assay in all cases: relative viability (nuclei count vs DMSO), 5 days (fraction); higher = more cells survive
[1] = compound: CS(=O)(=O)CCNCc1ccc(-c2ccc3ncnc(Nc4ccc(OCc5cccc(F)c5)c(Cl)c4)c3c2)o1 [Lapatinib] + Cc1cc(Nc2cc(N3CCN(C)CC3)nc(Sc3ccc(NC(=O)C4CC4)cc3)n2)n[nH]1 [Tozasertib] (partner 0.1 µM)
How it was run: (§1)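 Lung cancer cell lines in 1536-well plates were dosed by pin tool the day after seeding, either with one drug alone or with a fixed anchor-drug dose plus five library-drug doses (not always all listed) in √10 steps. After 5 days, cells were fixed and their nuclei stained in one step (final 0.05% Triton X-100, 1% formaldehyde, 1 ug/ml Hoechst), then counted on 4× images. Relative viability is the nuclei count in treated wells divided by that in vehicle wells. Values are medians of duplicate plates.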

[2] = compound: CC1=NC=CC(=C1)C2=CC=C(C=C2)CC(=O)NC3=CC=C(C=C3)C4=CN=CC=C4 [Wnt-C59] + Nc1nc2[nH]cc(CCc3ccc(C(=O)N[C@@H](CCC(=O)O)C(=O)O)cc3)c2c(=O)[nH]1 [Pemetrexed] (partner 0.2 µM)
How it was run: as §1

[3] = compound: CC1=NC=CC(=C1)C2=CC=C(C=C2)CC(=O)NC3=CC=C(C=C3)C4=CN=CC=C4 [Wnt-C59] + O=C(c1cc(Cc2n[nH]c(=O)c3ccccc23)ccc1F)N1CCN(C(=O)C2CC2)CC1 [Olaparib] (partner 8 µM)
How it was run: as §1

[4] = compound: CS(=O)(=O)CCNCc1ccc(-c2ccc3ncnc(Nc4ccc(OCc5cccc(F)c5)c(Cl)c4)c3c2)o1 [Lapatinib] + N=C(N)NC(=N)NCCc1ccccc1 [Phenformin] (partner 250 µM)
How it was run: as §1

| Cell Line | relative viability ([1]; first compound 0.02 µM) | relative viability ([1]; first compound 0.06325 µM) | relative viability ([1]; first compound 0.2 µM) | relative viability ([1]; first compound 0.6325 µM) | relative viability ([1]; first compound 2 µM) | relative viability ([2]; first compound 0.001 µM) | relative viability ([2]; first compound 0.01 µM) | relative viability ([2]; first compound 0.03162 µM) | relative viability ([2]; first compound 0.1 µM) | relative viability ([3]; first compound 0.001 µM) | relative viability ([3]; first compound 0.01 µM) | relative viability ([3]; first compound 0.03162 µM) | relative viability ([3]; first compound 0.1 µM) | relative viability ([4]; first compound 0.02 µM) | relative viability ([4]; first compound 0.06325 µM) | relative viability ([4]; first compound 0.2 µM) | relative viability ([4]; first compound 0.6325 µM) | relative viability ([4]; first compound 2 µM) |
| --- | --- | --- | --- | --- | --- | --- | --- | --- | --- | --- | --- | --- | --- | --- | --- | --- | --- | --- |
| NCI-H322M | 0.437 | 0.457 | 0.395 | 0.477 | 0.343 | 0.649 | 0.589 | 0.579 | 0.569 | 0.704 | 0.804 | 0.828 | 0.765 | 0.805 | 0.736 | 0.736 | 0.693 | 0.551 |
| NCI-H1666 | 0.598 | 0.577 | 0.573 | 0.453 | 0.36 | 0.865 | 0.799 | 0.828 | 0.869 | 0.732 | 0.758 | 0.711 | 0.817 | 0.555 | 0.545 | 0.592 | 0.611 | 0.461 |
| HCC-44 | – | 0.622 | 0.81 | 0.762 | 0.725 | 0.619 | 0.647 | 0.64 | 0.629 | 0.981 | 1.02 | 0.965 | 0.92 | – | 0.189 | 0.211 | 0.172 | 0.235 |
| HCC-366 | – | 0.0794 | 0.0593 | 0.0794 | 0.0545 | 0.164 | 0.16 | 0.163 | 0.155 | 0.346 | 0.359 | 0.362 | 0.34 | – | 0.642 | 0.633 | 0.594 | 0.559 |
| LU99A | 0.281 | 0.293 | 0.239 | 0.195 | 0.216 | 0.205 | 0.195 | 0.178 | 0.195 | 0.28 | 0.264 | 0.29 | 0.23 | 0.379 | 0.712 | 0.743 | 0.866 | 0.792 |
| NCI-H460 | 0.0815 | 0.298 | 0.0669 | 0.0896 | 0.06 | 0.0664 | 0.0664 | 0.0652 | 0.0706 | 0.462 | 0.483 | 0.474 | 0.459 | 0.487 | 0.48 | 0.52 | 0.504 | 0.446 |
| RERF-LC-KJ | 0.525 | 0.425 | 0.436 | 0.413 | 0.337 | 0.483 | 0.497 | 0.45 | 0.495 | 0.787 | 0.846 | 1.12 | 0.877 | 0.406 | 0.39 | 0.469 | 0.35 | 0.369 |
| NCI-H2087 | – | 0.233 | 0.267 | 0.186 | 0.215 | 0.629 | 0.72 | 0.697 | 0.709 | 0.608 | 0.657 | 0.688 | 0.722 | – | 0.354 | 0.485 | 0.552 | 0.406 |
| COR-L23 | 0.149 | 0.131 | 0.152 | 0.165 | 0.109 | 0.221 | 0.194 | 0.206 | 0.2 | 0.295 | 0.309 | 0.362 | 0.32 | 0.419 | 0.421 | 0.474 | 0.455 | 0.42 |
